In test [1] the target is 1-phosphatidylinositol 4,5-bisphosphate phosphodiesterase beta-3 (Homo sapiens, UniProt Q01970). The test is described as follows: Fluorescence-based biochemical high throughput dose response assay to identify inhibitors of phospholipase C isozymes (PLC-B3).
For test [2], the target named is 1-phosphatidylinositol 4,5-bisphosphate phosphodiesterase gamma-1 (Homo sapiens, UniProt P19174). The test can be described thus: Counterscreen for inhibitors of phospholipase C isozymes (PLC-B3): Fluorescence-based biochemical high throughput dose response assay to identify inhibitors of phospholipase C isozymes (PLC-gamma1). In general terms: The purpose of a counterscreen is to sort out artefacts and off-target activity.

Test [3] concerns the target DNA dC->dU-editing enzyme APOBEC-3A (Homo sapiens, UniProt P31941). The test can be described thus: A3A deaminase inhibition for selectivity – biochemical, dose response (AID 504722). Type of test: functional.
For test [4], the target named is Peroxisome proliferator-activated receptor gamma/Nuclear receptor coactivator 3 (Homo sapiens, UniProt P37231). The test can be described thus: TR-FRET dose response biochemical High Throughput Screening assay for agonists of the steroid receptor coactivator 3 (SRC-3) recruitment by the peroxisome proliferator-activated receptor gamma (PPAR gamma): non-selective agonists. [Related pubchem assays: 1301 (Confirmation screen.), 1048 (Primary screen.)]. The test is classed as functional. (In general: Time-resolved FRET reads energy transfer from a long-lived donor to a nearby acceptor.)

Test [5] has as its target DNA dC->dU-editing enzyme APOBEC-3G (Homo sapiens, UniProt Q9HC16). The test can be described thus: Dose Response confirmation of small molecule APOBEC3G DNA Deaminase Inhibitors via a fluorescence-based single-stranded DNA deaminase assay. [Related pubchem assays (depositor defined):AID493012, AID493028]. The test is classed as functional.
The target of test [6] is FAD-linked sulfhydryl oxidase ALR (Homo sapiens, UniProt P55789). The test can be described thus: ALR-catalysed DTT oxidation blockers – biochemical, H2O2 detection, luminescence, cherry-pick, dose response (AID 493248).
Test [7] addresses Peroxisome proliferator-activated receptor gamma/Nuclear receptor coactivator 2 (Homo sapiens, UniProt P37231). The test is described as follows: TR-FRET dose response biochemical High Throughput Screening assay for agonists of the steroid receptor coactivator 2 (SRC-2) recruitment by the peroxisome proliferator-activated receptor gamma (PPAR gamma): non-selective agonists. [Related pubchem assays: 1297, 1032 ]. The test is classed as functional.

Test [8] deals with Peroxisome proliferator-activated receptor gamma/Nuclear receptor coactivator 1 (Homo sapiens, UniProt P37231). The test is described as follows: TR-FRET dose response biochemical High Throughput Screening assay for agonists of the steroid receptor coactivator 1 (SRC-1) recruitment by the peroxisome proliferator-activated receptor gamma (PPAR gamma): non-selective agonists. [Related pubchem assays (depositor defined):AID1300, AID1808, AID504735, AID631]. Type of test: protein assay.

The target of test [9] is Major prion protein (Homo sapiens, UniProt P04156). Type of test: functional, cell-based.
Test [10] can be described thus: cells.
Test [11] concerns the target Mu-type opioid receptor (Homo sapiens, UniProt P35372). The test is described as follows: Late-stage results from the probe development effort to identify antagonists of OPRK1: luminescence-based cell-based dose response OPRM1 counterscreen, Set 2. Type of test: functional.
Test [12] concerns the target Kappa-type opioid receptor (Homo sapiens, UniProt P41145). The test can be described thus: Late-stage fluorescence-based cell-based dose response assay for antagonists of kappa opioid receptor 1 (OPRK1). The test is classed as functional.
Test [13] has as its target Sphingosine 1-phosphate receptor 1 (Homo sapiens, UniProt P21453). The test can be described thus: Late-stage counterscreen for antagonists of kappa opioid receptor 1 (OPRK1): fluorescence-based cell-based dose response assay to identify antagonists of Sphingosine 1-Phosphate Receptor 1 (S1P1). The test is classed as functional.
Test [14] concerns the target Delta-type opioid receptor (Homo sapiens, UniProt P41143). The test is described as follows: Late-stage results from the probe development effort to identify antagonists of OPRK1: fluorescence-based cell-based dose response OPRD1 counterscreen, Set 2. Type of test: functional.
Test [15] can be described thus: growth inhibition of replicating M. tuberculosis, dose response, counter-screen, dry powder, IC90 (AID 651617). Type of test: functional. As to conditions: Mycobacterium tuberculosis.
Test [16] in a line: inhibitors of non-replicating M. tuberculosis, dose response, luciferase, dry powder (AID 651620). Type of test: functional. As to conditions: Mycobacterium tuberculosis.
Test [17] in a line: inhibitors of non-replicating M. tuberculosis, dose response, luciferase, dry powder (AID 651619). Type of test: functional. As to conditions: Mycobacterium tuberculosis.
The nature of test [18]: viability loss in HEK293T cells – cell-based, CellTiter-Glo luminescence, dry powder, set 6, cytotoxicity control, dose response (AID 651949). Conditions: HEK293. Type of test: functional. A general note: Cellular ATP, detected with luciferase, serves as a proxy for viable cell number.
Test [19] in a line: viability loss in HeLa cells – cytotoxicity control for MgcRacGAP inhibitor project, dose response (AID 624300). The test is classed as functional.
Test [20] addresses Glucose-6-phosphate 1-dehydrogenase (Homo sapiens, UniProt P11413). The test can be described thus: inhibition of Homo sapiens G6PD, dose series – biochemical, fluorescence, selectivity assay for P. falciparum G6PD inhibitor project, dose response (AID 504792). Type of test: functional.
The nature of test [21]: blockers of FN fibrillogenesis by fibroblasts – AH1F cells, Alexa488-FN fluorescence, cherry-picks, dose response (AID 1035475). The test is classed as functional, cell-based.
Test [22] in a line: cells. Conditions: HEK293.
The nature of test [23]: cells. Conditions: A549.
Test [24] addresses SWI/SNF-related matrix-associated actin-dependent regulator of chromatin subfamily A member 2 (Homo sapiens, UniProt P51531). The test is described as follows: Luminescence-based cell-based high throughput dose response assay to identify activators of the function of SWI/SNF related, matrix associated, actin dependent regulator of chromatin, subfamily a, member 2 (SMARCA2, BRM). Type of test: functional.

The test system of test [25] is A-375. The test can be described thus: MITF: Counter assay: A375 proliferation Measured in Cell-Based System Using Plate Reader - 2084-03_Inhibitor_Dose_DryPowder_Activity. [Related pubchem assays (depositor defined):AID488944]. The test is classed as functional. Conditions: Homo sapiens.
Test [26] can be described thus: viability loss in HepG2 liver cells – cell-based, ATP luminescence, cherry-pick, set 6, cytotoxicity control, dose response (AID 1053125). The test is classed as functional.
Test [27] in a line: Counterscreen for activators of the function of SWI/SNF related, matrix associated, actin dependent regulator of chromatin, subfamily a, member 2 (SMARCA2, BRM): Luminescence-based cell-based high throughput dose response assay to identify non-selective compounds using the VP16 reporter assay. Type of test: functional.
The target in test [28] is T1, Microphthalmia-associated transcription factor (Homo sapiens, UniProt O75030).
T1 sequence (O75030 whole entry): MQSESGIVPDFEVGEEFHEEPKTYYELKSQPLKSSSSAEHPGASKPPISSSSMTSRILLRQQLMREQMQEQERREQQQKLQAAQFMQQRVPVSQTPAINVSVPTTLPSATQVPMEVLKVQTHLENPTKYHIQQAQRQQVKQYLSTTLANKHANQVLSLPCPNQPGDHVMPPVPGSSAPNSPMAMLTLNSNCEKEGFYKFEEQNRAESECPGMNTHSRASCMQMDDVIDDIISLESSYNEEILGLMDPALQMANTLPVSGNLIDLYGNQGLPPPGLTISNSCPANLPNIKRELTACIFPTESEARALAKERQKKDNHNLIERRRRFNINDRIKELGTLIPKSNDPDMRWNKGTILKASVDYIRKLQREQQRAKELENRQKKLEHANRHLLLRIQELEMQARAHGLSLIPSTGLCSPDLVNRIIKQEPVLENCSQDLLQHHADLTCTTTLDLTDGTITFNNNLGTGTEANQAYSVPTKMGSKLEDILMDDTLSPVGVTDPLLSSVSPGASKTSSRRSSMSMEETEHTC
The test can be described thus: reducers of TRPM1 reporter luminescence, concentration series – cell-based, SK-MEL-5, cherry-picked, set 3, MITF inhibitor project, dose response (AID 493073).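 Also: SK-MEL-5 melanoma cells with luciferase driven by the MITF target TRPM1 promoter.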 The test is classed as functional.

The target in test [29] is T2, Oxysterols receptor LXR-beta (Homo sapiens, UniProt P55055).
T2 sequence (P55055 whole entry): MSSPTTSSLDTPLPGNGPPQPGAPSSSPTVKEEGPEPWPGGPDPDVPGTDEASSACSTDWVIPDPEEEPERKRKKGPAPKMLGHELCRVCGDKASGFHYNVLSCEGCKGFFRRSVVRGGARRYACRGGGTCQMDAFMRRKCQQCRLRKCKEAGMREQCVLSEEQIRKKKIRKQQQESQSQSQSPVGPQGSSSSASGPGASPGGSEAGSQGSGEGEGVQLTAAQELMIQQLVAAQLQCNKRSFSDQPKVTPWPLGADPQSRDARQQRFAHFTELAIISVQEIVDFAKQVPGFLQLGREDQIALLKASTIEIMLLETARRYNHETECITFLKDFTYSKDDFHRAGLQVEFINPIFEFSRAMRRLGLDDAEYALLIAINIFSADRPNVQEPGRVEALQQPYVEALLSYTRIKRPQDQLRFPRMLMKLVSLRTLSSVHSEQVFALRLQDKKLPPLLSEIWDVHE
Type of test: functional, cell-based.

A short description of test [30]: Luminescence-based cell-based high throughput dose response assay to identify activators of the DAF-12 from the parasite S. stercoralis (ssDAF-12). Type of test: functional.
Test [31] is described as follows: viability loss in HepG2 hepatoma cells – cell-based, ATP luminescence, cherry-pick, activator set 2, cytotoxicity control, dose response (AID 1053143). Type of test: functional.
Test [32] deals with T3, Protein skinhead-1 (Caenorhabditis elegans, UniProt P34707).
T3 sequence (P34707 whole entry): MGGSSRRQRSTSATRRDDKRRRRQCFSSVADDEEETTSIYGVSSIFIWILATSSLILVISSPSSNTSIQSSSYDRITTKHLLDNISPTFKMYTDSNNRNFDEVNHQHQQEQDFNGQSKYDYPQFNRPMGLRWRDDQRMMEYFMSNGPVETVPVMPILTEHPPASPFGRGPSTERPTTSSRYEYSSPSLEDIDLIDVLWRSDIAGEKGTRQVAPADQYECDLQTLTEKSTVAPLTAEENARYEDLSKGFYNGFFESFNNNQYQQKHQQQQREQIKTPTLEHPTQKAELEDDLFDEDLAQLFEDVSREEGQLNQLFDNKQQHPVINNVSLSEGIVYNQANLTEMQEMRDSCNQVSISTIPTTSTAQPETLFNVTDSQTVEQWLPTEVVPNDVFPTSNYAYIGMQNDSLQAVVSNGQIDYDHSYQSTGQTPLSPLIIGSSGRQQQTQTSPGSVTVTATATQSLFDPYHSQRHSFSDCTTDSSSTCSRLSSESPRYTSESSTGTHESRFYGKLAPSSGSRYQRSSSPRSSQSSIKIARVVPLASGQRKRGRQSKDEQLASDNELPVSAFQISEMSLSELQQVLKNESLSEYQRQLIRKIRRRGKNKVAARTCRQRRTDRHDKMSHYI
The test is classed as functional.

Test [33] concerns the target T2, Oxysterols receptor LXR-beta. The test can be described thus: LXR agonists, Gal4 luciferase reporter, dose response, counter-screen for ssDAF-12 agonist project, cell-based, luminescence, HEK293, S. stercoralis campaign (AID 720737). Type of test: functional. As to conditions: read-out: IC50 (the source's name).
The nature of test [34]: Luminescence Cell-Based Dose Retest to Confirm Inhibitors of Cancer Stem Cells. [Related pubchem assays (depositor defined):AID2717, AID2721]. The test is classed as functional. Conditions: Homo sapiens.

Structures are written as SMILES. Active and inactive are the calls of the source.

In general, IC50 refers to the concentration that inhibits the measured activity by half. As to `O=C(NCc1ccc(F)cc1)c1cc2c(s1)CCCC2`, the IC50 in test [1] and in [2] was > 123 µM (inactive) in each case.
In general, AC50 refers to the concentration giving half of the maximal activity seen. With `COc1ccccc1-c1n[nH]c(=S)n1-c1ccccc1`, the values for the IC50 in [3], in [5] and in test [9] were > 100 µM (inactive), 4.99 µM (active) and 7.18 µM (active), respectively. The EC50 is > 79.4 µM (not active) in test [4], 6.26 µM (active) in [7] and 10.5 µM (inactive) in test [8]. Moreover, the AC50 in test [6] is 0.058 µM (active).
In the case of `COc1ccccc1-c1nnc(S)n1-c1ccccc1`, the IC50 in [10] was > 138 µM (inactive).
With `CN(C)c1cccc2c1c(NC(=O)Nc1ccc(OCc3ccccc3)cc1)nn2C`, the IC50 is 42.9 µM (inactive) in [11], 1.82 µM (active) in test [12], 34.9 µM (inactive) in test [13] and 4.38 µM (active) in test [14].
As a reminder, the IC90 is the point of the concentration-response curve where the effect stands at 90%. As for `Fc1ccc(Cn2cc(CSc3nnc(C4CCC4)o3)nn2)cc1`, the values for the IC90 in test [15], in [16] and in [17] were 250 µM (active), 4 µM (active) and 4 µM (active), respectively. For the same compound, in [18], the AC50 is 47.1 µM (active).
In general, CC50 refers to the concentration at which the toxic effect on the cells reaches its halfway point. Turning to `O=C(Nc1nc(-c2ccncc2)cs1)C1COc2ccccc2O1` (centres undefined), in test [19], the CC50 is 100 µM (active). Besides, in test [20], the IC50 is > 80 µM (inactive). The AC50 in test [21] is 0.512 µM (active).
For `c1ccc2cc3c(NCCN4CCOCC4)ccnc3cc2c1`, the AC50 is 9.44 µM (active) in [22]; 6.11 µM (active) in [23]; 21.2 µM (active) in test [25]; 12 µM (active) in test [26]; 2.91 µM (active) in test [28]. The EC50 is 11.1 µM (inactive) in [24] and > 91.2 µM (inactive) in test [27].
As for `Oc1cccc(/C=C/c2ccc3cccc(O)c3n2)c1`, the EC50 in test [29] and in test [33] was > 67.6 µM (inactive) each time. Besides, the IC50 in [30] is > 67.6 µM (inactive); in [32], > 100 µM (inactive). The AC50 in [31] is 26 µM (active); in test [34] it was 3.91 µM (active).

The values are drawn from ChEMBL document CHEMBL1201862, “PubChem BioAssay data set” (2004).
